# Laboratory results reported in publication PMC9818021, “Targets, Mechanisms and Cytotoxicity of Half-Sandwich Ir(III) Complexes Are Modulated by Structural Modifications on the Benzazole Ancillary Ligand” (Cancers, 2022).
# How the values were obtained:
# [1] = system: A549 cells; assay: Hoechst/propidium iodide staining; assay type: cell-based, human; details: 16 μM
# Description: (§1) DNA damage was measured using EpiQuik 8-OHdG DNA Damage Quantification Direct Kit (colorimetric) (Fischer, Waltham, MA, USA, P600396); The mitochondrial cytochrome C release was evaluated using the “Millipore’s FlowCellect Cytochrome C Kit (Millipore, FCCH100110)”. Lactate dehydrogenase activity release was measured in the culture medium using Cytotoxicity Detection Kit (Roche Diagnostic, Barcelona, Spain, 11 644 793 001). Protein synthesis was determined using Click-iT Plus O-propargyl-puromycin (OPP) Protein Synthesis Assay Kit (Invitrogen™, Waltham, MA, USA). Measurement of GSH/GSSG was determined with GSH/GSSG-Glo Assay (Promega, V6611). Measurements of OCR and ECAR with Seahorse XFp (Agilent Technologies) were determined using the XFp Cell Mito Stress Test Kit (103010-100) and XFp Glycolysis Stress Test Kit (103017-100). ATP measurement was determined with Cell Titer-Glo Luminescent Cell Viability Assay (Promega, Madison, WI, USA, G7570). Determination of DNA damage using phosphorylated H2AX measurement were performed as previously described. Cardiolipin oxidation using the fluorophore Nonyl Acridine Orange (NAO, Thermo Scientific, A1372) was performed as described. Cell viability was determined by Hoechst inclusion and Propidium iodide (PI) exclusion by standard protocols. TEM analysis were performed as described. […]
# [2] = system: gene expression (stress response, apoptosis, cell cycle genes); assay: RT-qPCR differential gene expression; assay type: cell-based, human; details: vs. Control, 6 h after treatment
# Description: (§2) Specific assays with 1[C,NH] complex were performed according to manufacturer’s instructions using the following reagents from Molecular Probes (Thermo Fisher Scientific): Measurements of ROS: Dihydroethidium (DHE, D11347) and 2′, 7′-dichlorodihydrofluorescein diacetate (H2DCFDA, D399); detection of caspases 3/7: CellEvent Caspase-3/7 Green Detection Reagent (C10423); Cell viability: Live/Dead Cell Imaging Kit (R37601); Analysis of cytosolic calcium concentration: Fluo3/AM (F23915); Analysis of MMP: Tetramethylrhodamine methyl ester perchlorate (TMRM, T668). RT-qPCR’s assays were performed with the following primers/probes from Thermo Fisher Scientific: DCP1A (Hs00218198-m1), FOSB (Hs00171851-m1), EGR1(Hs0015928-m1), ATF3 (Hs00231069-m1), DDIT3 (Hs00358796-g1), PP1R15A (Hs00169585-m1), CHAC1(Hs00225520-m1), MIR9-1 (Hs04231512-s1), ATP1B2 (Hs00155922-m1), BBC3 (Hs00248075-m1), BCL2L11 (Hs00798019-s1), PMAIP1 (Hs00560402-m1), SKP2 (Hs01021864-m1) and HIST1H1B (Hs00271207-s1). RT-qPCR experiments were performed as described.
# [3] = system: A549-gal cells; assay: Seahorse XFp Glycolysis Stress Test (ECAR); assay type: cell-based, human; details: 16 µM
# Description: Cell culture. Epithelial ovarian carcinoma cells (A2780) that acquired resistance to cisplatin epithelial ovarian carcinoma cells (A2780cis), colon adenocarcinoma cells (SW480) and epithelial lung adenocarcinoma cells (A549) were provided by Sigma Aldrich. A549 and SW480 cells were grown in Dulbecco′s Modified Eagle′s Medium (DMEM), supplemented with 10% Fetal Bovine Serum (FBS) and 1% penicillin, streptomycin and 1% glutamine for A549 and 1% amphotericin B for SW480. The A2780 and A2780cis were grown in RPMI 1640 supplemented with 10% Fetal Bovine Serum (FBS), 1% glutamine and 1% penicillin, streptomycin and amphotericin B. All cells were incubated in a humidified incubator at 37 °C under a 5% CO2 atmosphere and grown in 100 mm culture dishes to approximately 70–80% confluence. For subculturing, cells were detached with Trypsin-EDTA (Sigma). A549-gal were derived from A549 cultured in glucose-free medium supplemented with 10 mM galactose (Sigma) for at least 10 passes.
# DNA damage was measured using EpiQuik 8-OHdG DNA Damage Quantification Direct Kit (colorimetric) (Fischer, Waltham, MA, USA, P600396); The mitochondrial cytochrome C release was evaluated using the “Millipore’s FlowCellect Cytochrome C Kit (Millipore, FCCH100110)”. Lactate dehydrogenase activity release was measured in the culture medium using Cytotoxicity Detection Kit (Roche Diagnostic, Barcelona, Spain, 11 644 793 001). Protein synthesis was determined using Click-iT Plus O-propargyl-puromycin (OPP) Protein Synthesis Assay Kit (Invitrogen™, Waltham, MA, USA). Measurement of GSH/GSSG was determined with GSH/GSSG-Glo Assay (Promega, V6611). Measurements of OCR and ECAR with Seahorse XFp (Agilent Technologies) were determined using the XFp Cell Mito Stress Test Kit (103010-100) and XFp Glycolysis Stress Test Kit (103017-100). ATP measurement was determined with Cell Titer-Glo Luminescent Cell Viability Assay (Promega, Madison, WI, USA, G7570). Determination of DNA damage using phosphorylated H2AX measurement were performed as previously described. Cardiolipin oxidation using the fluorophore Nonyl Acridine Orange (NAO, Thermo Scientific, A1372) was performed as described. Cell viability was determined by Hoechst inclusion and Propidium iodide (PI) exclusion by standard protocols. TEM analysis were performed as described. Cell cycle analysis by flow cytometry and microarrays analysis were performed as described. Arrays data have been deposited in the ArrayExpress database at EMBL-EBI (www.ebi.ac.uk/arrayexpress) under accession number E-MTAB-860 (10 November 2022)
# [4] = system: A549 cells; assay: ATP levels (Cell Titer-Glo); assay type: cell-based, human; details: 16 µM, 8 h incubation
# Description: as §1
# [5] = system: cytosolic Ca2+; assay: Cytosolic calcium (Fluo3/AM); assay type: cell-based; details: 16 µM, after 4 h of incubation
# Description: as §2
# [6] = system: A549-luc orthotopic lung tumor in athymic nude mice; assay: Orthotopic lung cancer model (A549-luc); assay type: in vivo, mouse
# Description: Orthotopic lung cancer model. Athymic nude mice were used. The model was developed following the protocol previously described. On day 20, treatment with the metal complex was started, and 4 doses were given every other day. Tumor growth was measured in vivo by luminescence (IVIS® Spectrum) on the days that the complexes were not administered, ending the experiment on day 37 with the sacrifice of the animal and the removal of organs. Organ indicators of metastases, lungs, and mediastinal lymph nodes were processed as previously described. Histological analyzes were performed as described.
# [7] = system: SW480 cells; assay: Ir cellular uptake by ICP-MS; assay type: cell-based, human; details: 2 µM, 24 h
# Description: Quantification of Ir cellular uptake by ICP-MS (Inductively coupled plasma-mass spectrometry). Metal accumulation studies were conducted on the SW480 cell line. In these experiments, 3 × 10^5 cells were seeded in 12.5 cm^2 tissue culture flasks in drug-free medium and incubated for 24h at 37 °C in a 5% CO2 humidified atmosphere. Then, cells were treated with 2 µM of the iridium complexes. After 24 h of exposure, cells were washed twice with PBS and harvested. The pellets were resuspended in PBS, and 10 µL were used to count cells. Then, each resuspended pellet was digested in 65% HNO3 for 24 h. Finally, solutions were analyzed in a 7700 ICP-MS (Agilent Technologies, Palo Alto, CA, USA). Data is reported as the mean the standard deviation (n = 3).
# [8] = 4 doses (0.9 mg/kg) on alternate days
compound,measurement,setting,value
"Cc1c(C)c(C)[c-](C)c1C.[Cl][Ir]1[c]2ccccc2-c2[nH]c3ccccc3[n+]21 [1[C,NH], [(η^5-Cp*)IrCl(κ^2-N,C-pbim)]]",PI positive cells,[1],absent during the first 6 h of treatment
same,ATF3 RT-qPCR (2-ΔΔCt),[2],> 100
same,ATP1B2 RT-qPCR (2-ΔΔCt),[2],19.5
same,BBC3 RT-qPCR (2-ΔΔCt),[2],3.7
same,BCL2L11 RT-qPCR (2-ΔΔCt),[2],3.6
same,CHAC1 RT-qPCR (2-ΔΔCt),[2],3.5
same,DDIT3 RT-qPCR (2-ΔΔCt),[2],7.8
same,EGR1 RT-qPCR (2-ΔΔCt),[2],> 100
same,FOSB RT-qPCR (2-ΔΔCt),[2],> 100
same,HIST1H1B RT-qPCR (2-ΔΔCt),[2],0.1
same,MIR9-1 RT-qPCR (2-ΔΔCt),[2],> 100
same,PMAIP1 RT-qPCR (2-ΔΔCt),[2],3.4
same,PPP1R15A RT-qPCR (2-ΔΔCt),[2],14.8
same,SKP2 RT-qPCR (2-ΔΔCt),[2],0.3
same,"Acute Response, ECAR, Mean",[3],4.17 mpH/min
same,"Glycolysis, ECAR, Mean",[3],44.81 mpH/min
same,"Glycolytic Capacity, ECAR, Mean",[3],43.97 mpH/min
same,"Glycolytic Reserve %, Mean",[3],98.26%
same,"Glycolytic Reserve, ECAR, Mean",[3],2.48 mpH/min
same,"Non-Glycolytic Acidification, ECAR, Mean",[3],9.64 mpH/min
same,Decrease on ATP levels,[4],around 35%
same,Cytosolic Ca2+,[5],increase in cytosolic Ca^2+
same,Body weight of treated mice,[6]; [8],did not lose weight
same,Necropsy findings in non-tumor tissues,[6]; [8],no pathological evidence of relevance was detected in non-tumor tissues
same,Luciferase activity in mediastinal nodes,"[6]; 4 doses (0.9 mg/kg), day 37",lack of effect
same,Luciferase activity in the primary tumor (lung extracts),"[6]; 4 doses (0.9 mg/kg), day 37",significantly reduced luciferase activity in the primary tumor
same,Size of tumor foci (anti-CK7 immunohistochemistry),"[6]; 4 doses (0.9 mg/kg), day 37",strong effect on reducing the size of tumor foci
"Cc1c(C)c(C)[c-](C)c1C.[Cl][Ir]1[O]c2ccccc2-c2sc3ccccc3[n+]21 [8[CO,S], [(η^5-Cp*)IrCl(κ^2-O,N-hpbtz)]]",Metal accumulation in SW480 cells,[7],highest accumulation
